In patent US10065972B2, “Bicyclic or tricyclic heterocyclic compound” (MITSUBISHI TANABE PHARMA CORPORATION, priority 2014, dated 2018):

Target: human recombinant KAT-II (Homo sapiens (Human), UniProt Q8N5Z0)
Assay: KAT-II inhibitory test
Format: biochemical
Settings: 3.0 μmol/L kynurenine, 37° C., 1 hr, pH 8.0; kynurenic acid quantified by HPLC
Procedure, shortened: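 E. coli-expressed His/MBP-tagged human KAT-II (2.0 ng/μL) incubated with 3.0 μmol/L kynurenine and 10 μmol/L pyridoxal phosphate in Tris-acetate pH 8.0, 1 hr at 37 °C. Reaction stopped with TCA. Kynurenic acid quantified by reversed-phase HPLC with fluorescence detection (ex 354/em 460 nm), duplicate at each concentration.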

Sequence of human recombinant KAT-II (Q8N5Z0 30-425): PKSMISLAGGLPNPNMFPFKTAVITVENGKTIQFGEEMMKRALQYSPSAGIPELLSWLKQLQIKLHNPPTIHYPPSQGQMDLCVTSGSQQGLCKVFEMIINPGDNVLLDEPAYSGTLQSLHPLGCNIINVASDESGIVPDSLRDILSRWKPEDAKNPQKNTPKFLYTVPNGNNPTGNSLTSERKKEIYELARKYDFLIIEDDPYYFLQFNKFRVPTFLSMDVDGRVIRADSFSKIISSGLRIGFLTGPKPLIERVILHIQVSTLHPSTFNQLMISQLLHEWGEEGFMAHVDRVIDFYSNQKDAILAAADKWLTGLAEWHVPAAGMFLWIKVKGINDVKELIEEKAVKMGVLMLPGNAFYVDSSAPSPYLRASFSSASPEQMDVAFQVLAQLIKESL

Row | SMILES | IC50 [nM]
1 | COCc1nc2sc(N3CCC[C@@H]3C(=O)NCc3ccccc3)nc2c(=O)n1C1CCOCC1 [Example 565, (R)-N-benzyl-1-[5-methoxymethyl-7-oxo-6-(tetrahydro-2H-pyran-4-yl)-6,7-dihydro[1,3]thiazolo[5,4-d]pyrimidin-2-yl]pyrrolidine-2-carboxamide] | 10
2 | Cn1c(C2CC2)nc2sc(N3CC(F)(F)C[C@@H]3C(=O)NCc3ccccc3)nc2c1=O [Example 572, (R)-N-benzyl-1-(5-cyclopropyl-6-methyl-7-oxo-6,7-dihydro[1,3]thiazolo[5,4-d]pyrimidin-2-yl)-4,4-difluoropyrrolidine-2-carboxamide] | 86
3 | Cn1c(C2(C#N)CC2)nc2sc(N3CCC[C@@H]3C(=O)NCc3ccccc3)nc2c1=O [Example 573, (R)-N-benzyl-1-[5-(1-cyanocyclopropyl)-6-methyl-7-oxo-6,7-dihydro[1,3]thiazolo[5,4-d]pyrimidin-2-yl]pyrrolidine-2-carboxamide] | 35
4 | CCc1nc2sc(N3CCC[C@@H]3C(=O)COc3ccccc3)nc2c(=O)n1C [Example 575, 5-ethyl-6-methyl-2-[(R)-2-(2-phenoxyacetyl)pyrrolidin-1-yl][1,3]thiazolo[5,4-d]pyrimidin-7(6H)-one] | 19
5 | COC1CN(c2nc3sc(N4CCC[C@@H]4C(=O)COc4ccccc4)nc3c(=O)n2C)C1 [Example 578, 5-(3-methoxyazetidin-1-yl)-6-methyl-2-[(R)-2-(2-phenoxyacetyl)pyrrolidin-1-yl][1,3]thiazolo[5,4-d]pyrimidin-7(6H)-one] | 28
6 | CCc1nc2sc(N3CCC[C@@H]3C(=O)CNc3ccccc3)nc2c(=O)n1C [Example 579, 5-ethyl-6-methyl-2-[(R)-2-(2-phenylaminoacetyl)pyrrolidin-1-yl][1,3]thiazolo[5,4-d]pyrimidin-7(6H)-one] | 10
7 | O=C(NCc1ccccc1)[C@H]1CCCN1c1nc2c(=O)[nH]c(-c3c(F)cccc3F)nc2s1 [Example 583, (R)-N-benzyl-1-[5-(2,6-difluorophenyl)-7-oxo-6,7-dihydro[1,3]thiazolo[5,4-d]pyrimidin-2-yl]pyrrolidine-2-carboxamide] | 9
8 | Cc1noc(-c2nc3sc(N4CCC[C@@H]4C(=O)NCc4ccccc4)nc3c(=O)[nH]2)n1 [Example 585, (R)-N-benzyl-1-[5-(3-methyl-[1,2,4]oxadiazol-5-yl)-7-oxo-6,7-dihydro[1,3]thiazolo[5,4-d]pyrimidin-2-yl]pyrrolidine-2-carboxamide] | 12
9 | CN1CCn2c(nc3sc(N4CCC[C@@H]4C(=O)NCc4ccccc4)nc3c2=O)C1 [Example 590, (R)-N-benzyl-1-(6-methyl-10-oxo-5,7,8,10-tetrahydro-6H-pyrazino[1,2-a][1,3]thiazolo[5,4-d]pyrimidin-2-yl)pyrrolidine-2-carboxamide] | 280
10 | O=C(NCc1ccccc1)[C@H]1CCCN1c1nc2c(=O)n3c(nc2s1)CN(CC(F)F)CC3 [Example 593, (R)-N-benzyl-1-[6-(2,2-difluoroethyl)-10-oxo-5,7,8,10-tetrahydro-6H-pyrazino[1,2-a][1,3]thiazolo[5,4-d]pyrimidin-2-yl]pyrrolidine-2-carboxamide] | 51
11 | C[C@@H]1CN(C)Cc2nc3sc(N4CCC[C@@H]4C(=O)NCc4ccccc4)nc3c(=O)n21 [Example 601, (R)-N-benzyl-1-[(R)-6,8-dimethyl-10-oxo-5,7,8,10-tetrahydro-6H-pyrazino[1,2-a][1,3]thiazolo[5,4-d]pyrimidin-2-yl]pyrrolidine-2-carboxamide] | 140
12 | CN1CCn2c1nc1sc(N3CCC[C@@H]3C(=O)NCc3ccccc3)nc1c2=O [Example 602, (R)-N-benzyl-1-(5-methyl-9-oxo-5,6,7,9-tetrahydroimidazo[1,2-a][1,3]thiazolo[5,4-d]pyrimidin-2-yl)pyrrolidine-2-carboxamide] | 31
13 | O=C(NCc1ccccc1)[C@H]1CCCN1c1nc2c(=O)n3c(nc2s1)C(F)(F)CCC3 [Example 605, (R)-N-benzyl-1-(5,5-difluoro-10-oxo-5,7,8,10-tetrahydro-6H-pyrido[1,2-a][1,3]thiazolo[5,4-d]pyrimidin-2-yl)pyrrolidine-2-carboxamide] | 8.2
14 | CC(C)(O)c1nc2sc(N3CCC[C@@H]3C(=O)NCc3ccccc3)nc2c(=O)[nH]1 [Example 606, (R)-N-benzyl-1-[5-(2-hydroxypropan-2-yl)-7-oxo-6,7-dihydro[1,3]thiazolo[5,4-d]pyrimidin-2-yl]pyrrolidine-2-carboxamide] | 7.6
15 | Cn1c(-c2ccccc2)nc2sc(N3CC[C@@H](N)[C@@H]3C(=O)NCc3ccccc3)nc2c1=O [Example 611, (2R,3R)-3-amino-N-benzyl-1-(6-methyl-7-oxo-5-phenyl-6,7-dihydro[1,3]thiazolo[5,4-d]pyrimidin-2-yl)pyrrolidine-2-carboxamide] | 570
16 | CCc1nn(CC)c(=O)c2nc(N3CCC[C@@H]3C(=O)NCc3ccccc3)sc12 [Example 612, (R)-N-benzyl-1-(5,7-diethyl-4-oxo-4,5-dihydro[1,3]thiazolo[4,5-d]pyridazin-2-yl)pyrrolidine-2-carboxamide] | 52

Row | SMILES | IC50 [nM]
17 | CCc1nn(C2CCOCC2)c(=O)c2nc(N3CCC[C@@H]3C(=O)NCc3ccccc3)sc12 [Example 613, (R)-N-benzyl-1-[7-ethyl-4-oxo-5-(tetrahydro-2H-pyran-4-yl)-4,5-dihydro[1,3]thiazolo[4,5-d]pyridazin-2-yl]pyrrolidine-2-carboxamide] | 22
18 | CCn1nc(C2CC2)c2sc(N3CCC[C@@H]3C(=O)NCc3ccccc3)nc2c1=O [Example 614, (R)-N-benzyl-1-(7-cyclopropyl-5-ethyl-4-oxo-4,5-dihydro[1,3]thiazolo[4,5-d]pyridazin-2-yl)pyrrolidine-2-carboxamide] | 16
19 | Cc1nn(C2CCCCC2)c(=O)c2nc(N3CCC[C@@H]3C(=O)NCc3ccccc3)sc12 [Example 616, (R)-N-benzyl-1-(5-cyclohexyl-7-methyl-4-oxo-4,5-dihydro[1,3]thiazolo[4,5-d]pyridazin-2-yl)pyrrolidine-2-carboxamide] | 73
20 | O=C(NCc1ccccc1)[C@H]1CCCN1c1nc2c(=O)[nH]cc(C(F)(F)F)c2s1 [Example 617, (R)-N-benzyl-1-(4-oxo-7-trifluoromethyl-4,5-dihydro[1,3]thiazolo[4,5-c]pyridin-2-yl)pyrrolidine-2-carboxamide] | 240
21 | O=C(NCc1ccccc1)[C@H]1CCCN1c1nc2c(=O)[nH]c(C3CC3)c(Cl)c2s1 [Example 623, (R)-N-benzyl-1-(7-chloro-6-cyclopropyl-4-oxo-4,5-dihydro[1,3]thiazolo[4,5-c]pyridin-2-yl)pyrrolidine-2-carboxamide] | 22
22 | O=C(NCc1ccccc1)[C@H]1CCCN1c1nc2c(=O)[nH]c(-c3ccccc3F)c(Cl)c2s1 [Example 624, (R)-N-benzyl-1-[7-chloro-6-(2-fluorophenyl)-4-oxo-4,5-dihydro[1,3]thiazolo[4,5-c]pyridin-2-yl]pyrrolidine-2-carboxamide] | 15
23 | CC(C)(F)c1[nH]c(=O)c2nc(N3CCC[C@@H]3C(=O)NCc3ccccc3)sc2c1Cl [Example 626, (R)-N-benzyl-1-[7-chloro-6-(2-fluoropropan-2-yl)-4-oxo-4,5-dihydro[1,3]thiazolo[4,5-c]pyridin-2-yl]pyrrolidine-2-carboxamide] | 15
24 | CCOC1(c2cc3sc(N4CCC[C@@H]4C(=O)NCc4ccccc4)nc3c(=O)[nH]2)CC1 [Example 629, (R)-N-benzyl-1-[6-(1-ethoxycyclopropyl)-4-oxo-4,5-dihydro[1,3]thiazolo[4,5-c]pyridin-2-yl]pyrrolidine-2-carboxamide] | 47
25 | Cn1c(C(F)(F)F)cc2sc(N3CCC[C@@H]3C(=O)NCc3ccccc3)nc2c1=O [Example 631, (R)-N-benzyl-1-(5-methyl-4-oxo-6-trifluoromethyl-4,5-dihydro[1,3]thiazolo[4,5-c]pyridin-2-yl)pyrrolidine-2-carboxamide] | 55
26 | CCCc1cc(=O)n2nc(N3CCCC[C@@H]3C(=O)NCc3ccccc3)sc2n1 [Example 635, (R)-N-benzyl-1-(5-oxo-7-propyl-5H-[1,3,4]thiadiazolo[3,2-a]pyrimidin-2-yl) piperidine-2-carboxamide] | 970
27 | Cc1cc(=O)n2nc(N3CCC[C@@H]3C(=O)NC(C)(C)c3ccccc3)sc2n1 [Example 636, (R)-1-(7-methyl-5-oxo-5H-[1,3,4]thiadiazolo[3,2-a]pyrimidin-2-yl)-N-(1-methyl-1-phenylethyl)pyrrolidine-2-carboxamide] | 1500
28 | O=C(NCc1ccccc1)[C@H]1CCCN1c1nn2c(=O)cc(-c3ccccc3)nc2s1 [Example 638, (R)-N-benzyl-1-(5-oxo-7-phenyl-5H-[1,3,4]thiadiazolo[3,2-a]pyrimidin-2-yl)pyrrolidine-2-carboxamide] | 29
29 | O=C(NCc1ccccc1)[C@H]1CCCN1c1nn2c(=O)c3c(nc2s1)CCCC3 [Example 639, (R)-N-benzyl-1-(5-oxo-6,7,8,9-tetrahydro-5H-[1,3,4]thiadiazolo[2,3-b]quinazolin-2-yl)pyrrolidine-2-carboxamide] | 49
30 | O=C(NCc1ccccc1)[C@H]1CCCN1c1nn2c(=O)cc(C(F)(F)F)nc2s1 [Example 642, (R)-N-benzyl-1-(5-oxo-7-trifluoromethyl-5H-[1,3,4]thiadiazolo[3,2-a]pyrimidin-2-yl)pyrrolidine-2-carboxamide] | 78
31 | CCc1cc(=O)n2nc(N3CCOC[C@@H]3C(=O)NCc3ccccc3)sc2n1 [Example 645, (R)-N-benzyl-4-(7-ethyl-5-oxo-5H-[1,3,4]thiadiazolo[3,2-a]pyrimidin-2-yl)morpholine-3-carboxamide] | 1600
32 | Cc1nc2sc(N3CCC[C@@H]3C(=O)NCc3ccccc3)nn2c(=O)c1C(C)C [Example 647, (R)-N-benzyl-1-[7-methyl-5-oxo-6-(propan-2-yl)-5H-[1,3,4]thiadiazolo[3,2-a]pyrimidin-2-yl]pyrrolidine-2-carboxamide] | 58
